As usually defined, the Papp is a coefficient for how fast a substance crosses the barrier. Higher therefore signals ready permeation.

This note sets out measurements from PubChem BioAssay AID1645871.

Square brackets hold non-standard residues; d marks the D form. Peptide text beside a SMILES is read from it. ξ: configuration not given here. ξLac(3-iPr) = CC(C)CC(O)C(=O)O; NMeV = CN[CH](C(=O)O)C(C)C; NMeA = CN[CH](C)C(=O)O; βAla = NCCC(=O)O

The conditions of this series: pampa; pH 5.0; 30.0 min; 50.0 µM.
`O=C(Nc1ccc(OC(F)(F)Cl)cc1)c1cnc(N2CC[C@@H](O)C2)c(-c2ccn[nH]2)c1` yielded a Papp of 16.8 ×10⁻⁶ cm/s.

As to `Cc1ccc(-n2nc3c(=O)n(CCCC(=O)NC(C)c4ccccc4)nc(C)c3c2C)cc1` (stereo not drawn), the apparent permeability (Papp) is 562 ×10⁻⁶ cm/s.

For `COc1ccc(-c2ccc3ncc(Nc4ccncc4)n3n2)cc1OC`, the Papp was determined as 26.2 ×10⁻⁶ cm/s.

`COc1ccccc1N1CCN(CCN(C(=O)c2ccc(F)cc2)c2ccccn2)CC1` had a Papp of 73 ×10⁻⁶ cm/s.

In turn, `O=C(COc1ccccc1)NCC(c1cccs1)S(=O)(=O)c1ccc(Cl)cc1` (stereo not drawn) returned a Papp of 855 ×10⁻⁶ cm/s.

On to `COc1ccc(-n2nc(C3CCN(C(=O)Cc4ccc(F)cc4)CC3)[nH]c2=O)cc1`, for which the Papp amounted to 410 ×10⁻⁶ cm/s.

The molecule `CC(=O)c1c(C)oc2ccc(N(C(=O)Oc3ccccc3)S(=O)(=O)c3ccccc3)cc12` had a Papp greater than 1000 ×10⁻⁶ cm/s.

`CNc1nc(-c2ccc3c(N)n[nH]c3c2)cc(N2C[C@@H](C(=O)NC3CCCCC3)CC[C@H]2C)n1` returned a Papp of 26.1 ×10⁻⁶ cm/s.

The molecule `CCCCCn1cc2c(c1-c1ccc(Br)cc1)c(=O)n(C)c(=O)n2C` yielded a Papp of 946 ×10⁻⁶ cm/s.

As for `COc1cc(Cl)c(C)cc1Nc1c2c(nc3ccccc13)CCC2`, the Papp is greater than 1000 ×10⁻⁶ cm/s.

In turn, `N#Cc1ccc(-c2ccc(CNc3ccc(C4CCNCC4)cc3)o2)cc1` came in with a Papp of 236 ×10⁻⁶ cm/s.

In turn, `CCCc1oc2ccc(NS(=O)(=O)c3ccc(OC)cc3)cc2c1C(=O)OCC` yielded a Papp of 1.84 ×10⁻⁶ cm/s.

As for `CCOC(=O)c1ccc(NC(=O)N2Cc3[nH]cnc3C[C@H]2c2nc(C(C)C)no2)cc1`, the Papp stood at 16.2 ×10⁻⁶ cm/s.

The molecule `COc1ccccc1-c1nc(NCc2ccc(-c3cccnc3)cc2)c2ccccc2n1` returned a Papp of 727 ×10⁻⁶ cm/s.

In turn, `NC(=O)N1CCCC(C(=O)N2CCCN(c3ccc(F)cc3)CC2)C1` (stereo not drawn) came in with a Papp of 96.2 ×10⁻⁶ cm/s.

Regarding `COc1ccc(-n2nc(C3CCCN(C(=O)c4ccccc4F)C3)[nH]c2=O)cc1` (stereo not drawn), the Papp came out at 341 ×10⁻⁶ cm/s.

In turn, `COc1cccc(C(=O)Nc2ccc3oc(-c4ccc5ccccc5c4)nc3c2)c1` had a Papp of 756 ×10⁻⁶ cm/s.

The molecule `CCNC(=O)c1coc(COc2ccc3c(c2)C(c2ccc(F)cc2)N(C(=O)CC(C)C)CC3)n1` (stereo not drawn) gave a Papp greater than 1000 ×10⁻⁶ cm/s.

Molecule `CCOC(=O)N1CCN(Cc2nc3cc(NC(=O)c4ccc(OC)cc4)ccc3n2C(C)C)CC1` came in with a Papp of 808 ×10⁻⁶ cm/s.

The molecule `CC[C@H](C)[C@@H]([C@@H](CC(=O)N1CCC[C@H]1[C@H](OC)[C@@H](C)C(=O)N[C@@H](Cc1ccccc1)c1nccs1)OC)N(C)C(=O)[C@@H](NC(=O)[C@H](C(C)C)N(C)C)C(C)C` returned a Papp of 224 ×10⁻⁶ cm/s.

With `CCOc1ccc(N2CC(c3nc(-c4cc(OC)c(OC)c(OC)c4)no3)CC2=O)cc1` (stereo not drawn), the Papp is greater than 1000 ×10⁻⁶ cm/s.

`Cc1ccc(NC(=O)c2cc(-c3ccc[nH]3)n[nH]2)cc1F` yielded a Papp of 235 ×10⁻⁶ cm/s.

As for `COc1ccc(C2c3c(oc4ccc(Cl)cc4c3=O)C(=O)N2CCCN(C)C)cc1OC` (stereo not drawn), the Papp came to 7.76 ×10⁻⁶ cm/s.

Molecule `O=C(Nc1cccc(F)c1)c1cc(-c2ccc[nH]2)n[nH]1` yielded a Papp of 75.6 ×10⁻⁶ cm/s.

As for `Cc1ccnc(NC(=O)C2CC(=O)N(c3n[nH]c4cc(Br)ccc34)C2)c1` (stereo not drawn), the Papp was 62.8 ×10⁻⁶ cm/s.

`CNc1nc2c(s1)C(c1ccc(Cl)cc1)CC(=O)N2` (stereo not drawn) gave a Papp of 204 ×10⁻⁶ cm/s.

As for `O=C(O)Cc1ccc2oc(-c3ccc(NC(=O)/C=C/c4ccc(Br)cc4)c(F)c3)nc2c1`, the Papp turned out to be 405 ×10⁻⁶ cm/s.

`CCN(CCCOc1ccc2c(Nc3cc(CC(=O)Nc4cccc(F)c4)[nH]n3)ncnc2c1)CCOP(=O)(O)O` registered a Papp of 3.64 ×10⁻⁶ cm/s.

Molecule `COc1ccc(-c2c(-c3cc(C(=O)O)ccn3)ncn2C)cc1` came in with a Papp of 2.67 ×10⁻⁶ cm/s.

`COc1ccc(Cn2c(C(=O)O)c(CNCc3ccco3)c3ccc(C)cc32)cc1` registered a Papp of 618 ×10⁻⁶ cm/s.

The molecule `COc1cccc2c1CCCC2CCCN1CCN(C2CCCCC2)CC1` (stereo not drawn) gave a Papp of 777 ×10⁻⁶ cm/s.

In turn, `O=C(NC1CCCc2c1[nH]c1ccccc21)c1ccccc1` (stereo not drawn) displayed a Papp of 680 ×10⁻⁶ cm/s.

Molecule `CC(=O)NCCNC(=O)c1ccc(-c2ncc3cnc(-c4cccc(F)c4)cn23)cc1` yielded an apparent permeability (Papp) of 7.62 ×10⁻⁶ cm/s.

As to `O=C(NCCCNc1nc(Nc2cccc(CN3CCOCC3)c2)ncc1C1CC1)C1CCC1`, the Papp was determined as 8.82 ×10⁻⁶ cm/s.

Consider `Cc1ccc(NC2=C(c3ccc(C(F)(F)F)cc3)C(=O)c3ccccc32)cc1F`, for which the Papp was 574 ×10⁻⁶ cm/s.

As for `Cc1cnc(SCc2ccccn2)nc1C1CCCN(C(=O)c2scc3c2CCCC3)C1` (stereo not drawn), the Papp is greater than 1000 ×10⁻⁶ cm/s.

As to `NC(=O)C1CCN(c2nccc(-c3ccc4c(c3)OCCO4)n2)CC1`, the Papp came out at 191 ×10⁻⁶ cm/s.

For `CCOC(=O)c1ccc(N2C(=O)c3n[nH]c(-c4ccco4)c3C2c2ccc(C)cc2)cc1` (stereo not drawn), the Papp turned out to be 231 ×10⁻⁶ cm/s.

In turn, `Nc1c(-c2ccccc2)cc[nH]c1=O` came in with a Papp of 76.8 ×10⁻⁶ cm/s.

Turning to `c1ccc(CNc2nc(NCc3ccccc3)c3ccccc3n2)cc1`, the apparent permeability (Papp) was found to be 190 ×10⁻⁶ cm/s.

`CCCCOc1ccc(C(=O)N2CCC(c3n[nH]c(=O)n3-c3ccc(C)cc3)CC2)cc1` gave a Papp greater than 1000 ×10⁻⁶ cm/s.

`COc1cc(NC(=O)Cn2c(=O)oc3cc(S(=O)(=O)N4CCCCCC4)ccc32)cc(OC)c1`: the Papp is 372 ×10⁻⁶ cm/s.

As for `O=C(c1ccc2c(c1)OCO2)N1CCC(Cc2nc(-c3cnccn3)no2)CC1`, the Papp was 44 ×10⁻⁶ cm/s.

`COc1ccc(-n2nc(C3CCCN([S+](=O)([O-])c4cccc(C(F)(F)F)c4)C3)[nH]c2=O)cc1` (stereo not drawn) displayed a Papp of 564 ×10⁻⁶ cm/s.

`CCN(CC)C(=O)c1coc(COc2ccc3c(c2)C(c2cccc(F)c2)N(C(=O)C(C)C)CC3)n1` (stereo not drawn) came in with a Papp greater than 1000 ×10⁻⁶ cm/s.

`COc1ccc(-n2nc(C)c([C@@H]3C=C[C@@H](NCc4ccc(F)cc4)C3)c2C)cc1`: the Papp is 482 ×10⁻⁶ cm/s.

`O=C(NCCc1ccccn1)C1CC(=O)N(c2n[nH]c3cc(Br)ccc23)C1` (stereo not drawn) showed a Papp of 11.5 ×10⁻⁶ cm/s.

As to `Cc1ccc(CN2C(=O)C(O)(CC(=O)c3ccc(C)cc3)c3ccccc32)cc1` (stereo not drawn), the Papp was 626 ×10⁻⁶ cm/s.

For the molecule `CCOc1ccccc1C(=O)NC1CCN(c2cc(C)cc(C)c2)C1=O` (stereo not drawn), the Papp is greater than 1000 ×10⁻⁶ cm/s.

`Fc1ccccc1-c1nc(NCc2ccc(-c3cccnc3)cc2)c2ccccc2n1`: the Papp was greater than 1000 ×10⁻⁶ cm/s.

As to `O=C(CCCCn1c(=O)[nH]c2ccsc2c1=O)N1CCN(c2cccc(Cl)c2)CC1`, the Papp was 719 ×10⁻⁶ cm/s.

For `C[C@]1(CO)CN(c2cc(C(=O)Nc3ccc4c(c3)-c3c(c(C(N)=O)nn3-c3ccc(F)cc3)CC4)c(Cl)cn2)C[C@@]1(C)CO`, the Papp amounted to 45.6 ×10⁻⁶ cm/s.

The molecule `COc1ccc(NC(=O)c2ccc[nH]2)cc1S(=O)(=O)Nc1ccc(Br)cc1` had a Papp greater than 1000 ×10⁻⁶ cm/s.

Consider `CS(=O)(=O)CCNCc1ccc(-c2ccc3ncnc(Nc4ccc(OCc5cccc(F)c5)c(Cl)c4)c3c2)o1`, for which the Papp was found to be 69.7 ×10⁻⁶ cm/s.

The molecule `COc1cc2c(c(OC)c1OC)-c1ccc(SC)c(=O)cc1C(N)CC2` (stereo not drawn) gave a Papp of 55 ×10⁻⁶ cm/s.

`COc1cccc(Cn2c(=O)n(-c3cccc(Cl)c3C)c(=O)c3c4c(sc32)CN(C(C)=O)CC4)c1`: the apparent permeability coefficient (Papp) is greater than 1000 ×10⁻⁶ cm/s.

The molecule `COC[C@@H]1CN(C(=O)c2n[nH]c3ccccc23)C[C@H]1c1nc(C)no1` registered a Papp of 37.8 ×10⁻⁶ cm/s.

`Cc1ccc2c(c1)N(S(=O)(=O)c1cc(-c3onc(C)c3C)ccc1C)CCO2` had a Papp of 226 ×10⁻⁶ cm/s.

In the case of `COc1cc(C(=O)NC2CCCc3c2[nH]c2ccccc32)cc(OC)c1OC` (stereo not drawn), the Papp was 926 ×10⁻⁶ cm/s.

In turn, `CC(C)n1cc(-c2ccc3c(c2)N(C)CC3)c2c(NS(=O)(=O)c3ccn(C)n3)ccnc21` had a Papp greater than 1000 ×10⁻⁶ cm/s.

In turn, `CCC(C)C1NC(=O)C2CCCN2C(=O)C(CC(C)C)OC(=O)CCNC(=O)C(C)N(C)C(=O)C(C(C)C)N(C)C1=O` (stereo not drawn) (cyclo([ξLac(3-iPr)]PI[NMeV][NMeA][βAla]); configuration not given here) returned a Papp of 74 ×10⁻⁶ cm/s.

With `Cc1ccc(C(=O)Nc2ccc3oc(-c4cccnc4)nc3c2)cc1[N+](=O)[O-]`, the Papp came to 693 ×10⁻⁶ cm/s.

`CNC(=O)C1CCN(C(=O)c2ccc(-c3ncc4cnc(-c5ccccc5)cn34)cc2)CC1`: the Papp was 30.1 ×10⁻⁶ cm/s.

For `COC(=O)[C@@H]1C[C@H](OC(C)=O)C(=O)[C@H]2[C@@]1(C)CC[C@H]1C(=O)O[C@H](c3ccoc3)C[C@]21C`, the Papp was 381 ×10⁻⁶ cm/s.

In turn, `CCOc1ccccc1CNS(=O)(=O)c1ccc(-c2cnc(C3CC3)o2)cc1` registered a Papp greater than 1000 ×10⁻⁶ cm/s.

Turning to `CCCCNC(=O)CN1CCN(c2ncc(NC(=O)c3ccc(Cl)cc3)cc2C(=O)O)CC1`, the apparent permeability (Papp) was 1.92 ×10⁻⁶ cm/s.

Molecule `CCc1[nH]c2ccc(CNC(=O)Cc3cnc4c(C)cccn34)cc2c1C` gave a Papp of 32.2 ×10⁻⁶ cm/s.

In turn, `Cc1noc([C@@H]2CN(C(=O)c3nn(C)c4ccccc34)C[C@H]2CO)n1` returned a Papp of 91.5 ×10⁻⁶ cm/s.

Regarding `CN(C)CC[C@@H](c1ccc(Cl)cc1)c1ccccn1`, the Papp came out at 82.5 ×10⁻⁶ cm/s.

The molecule `CC1=C[C@@H](CNC(C)C)[C@H](C(C)C)C[C@H]1Cc1nnc(-c2ccncc2)o1` came in with a Papp of 41.3 ×10⁻⁶ cm/s.

As for `O=C(CCCN1CCC(O)(c2ccc(Cl)cc2)CC1)c1ccc(F)cc1`, the Papp is 396 ×10⁻⁶ cm/s.

As to `COc1ccc(-n2nc(C3CCN([S+](=O)([O-])c4cccc(C(F)(F)F)c4)CC3)[nH]c2=O)cc1`, the Papp was 434 ×10⁻⁶ cm/s.

`COc1ncc(-c2n[nH]c3c2CC(=O)N(c2ccccc2)C3)cn1` registered a Papp of 42.5 ×10⁻⁶ cm/s.

Molecule `Cc1nn2c(c1-c1ccccc1Oc1ccccc1)N(Cc1ccccc1O)CCC2` came in with a Papp of 879 ×10⁻⁶ cm/s.

In the case of `C#CCOc1ccc(-c2nnc(Nc3ccc(NC(C)=O)cc3)c3ccccc23)cc1`, the Papp was determined as 265 ×10⁻⁶ cm/s.

`O=C(CSc1nc(-c2ccc(F)cc2)[nH]c1-c1ccc(F)cc1)Nc1ccc2c(c1)OCCO2` came in with an apparent permeability (Papp) of 585 ×10⁻⁶ cm/s.

On to `Cc1ccccc1N(C)C1CN([S+](=O)([O-])c2cccc(C(F)(F)F)c2)C1`, for which the apparent permeability (Papp) turned out to be 924 ×10⁻⁶ cm/s.

With `CCn1cc(C(=O)N2CCN(c3cccc(Cl)c3)CC2)c2cc(OC)c(OC)cc2c1=O`, the Papp is 810 ×10⁻⁶ cm/s.

Consider `CNc1oc(-c2cccc(Cl)c2Cl)nc1C#N`, for which the Papp stood at 589 ×10⁻⁶ cm/s.

For the molecule `CCOc1ccc(-c2nnc(SCC(=O)NCc3ccccc3Cl)o2)cc1`, the Papp is 2 ×10⁻⁶ cm/s.

As for `COc1ccccc1N1CCN(CCN(C(=O)c2ccc(I)cc2)c2ccccn2)CC1`, the Papp was determined as 758 ×10⁻⁶ cm/s.

In turn, `CCOc1ccccc1C(=O)Nc1ncccc1C(=O)Nc1cccc(S(=O)(=O)C(F)(F)F)c1` displayed a Papp of 656 ×10⁻⁶ cm/s.

On to `COc1ccc(-n2nc(C3CCCN(C(=O)Cc4ccc(F)cc4)C3)[nH]c2=O)cc1` (stereo not drawn), for which the Papp stood at 524 ×10⁻⁶ cm/s.

Molecule `c1ccc(-c2cn[nH]c2)cc1` gave a Papp of 51.2 ×10⁻⁶ cm/s.

`Cc1ccnc(NC(=S)N2CCN(c3ccc(N)cc3)CC2)c1` had a Papp of 4.13 ×10⁻⁶ cm/s.

`CCN(CC)CCOc1ccc(Cc2ccccc2)cc1` registered a Papp of 236 ×10⁻⁶ cm/s.

`CN(C)[C@@H]1CCN(c2cccc(Nc3nn4c(=O)c5ccccc5nc4s3)c2)C1`: the Papp came to 24.9 ×10⁻⁶ cm/s.

In turn, `COc1ccccc1C(=O)NC1CCCc2c1[nH]c1c(Cl)cccc21` (stereo not drawn) gave a Papp of 607 ×10⁻⁶ cm/s.
